The values below come from patent US20240383955A1, “MODIFIED ANTIMICROBIAL PEPTIDES” (priority 2021, published 2024).

In brackets after ≈: the same amount, converted by molar mass. Bridge positions count the residues as written; N and C are the ends. Square brackets hold non-standard residues; d marks the D form. Ends that are not written are not given here. Peptide text beside a SMILES is read from it. Dab = NCC[C@H](N)C(=O)O

Experiment [1] deals with B. cinerea. Nature of the experiment: Semi-in planta drop inoculation assay on detached leaves of N. benthamiana, gray mold symptoms. The class given is in vivo, B. cinerea on N. benthamiana. Particulars: 48 h; for effectiveness in reducing gray mold disease symptoms: peptide tested at 1.5 μM, 3 μM and 6 μM.
Another experiment concerns Botrytis cinerea. Particulars: Table 18.
The subject of experiment [2] is B. cinerea. Nature of the experiment: In vitro antifungal activity (MIC) in SFM culture media, with or without added salts. Particulars: SFM + 2 mM CaCl2; Table 10.

As for `CC[C@H](C)[C@H](NC(=O)[C@H](CCCNC(=N)N)NC(=O)[C@H](CS)NC(=O)[C@H](CCCNC(=N)N)NC(=O)CNC(=O)[C@@H](N)CO)C(=O)N[C@@H](CC(C)C)C(=O)N[C@@H](Cc1ccccc1)C(=O)N[C@@H](CCCNC(=N)N)C(=O)N[C@@H](CS)C(=O)N[C@@H](Cc1ccccc1)C(=O)N[C@@H](CS)C(=O)N[C@H](C(=O)N[C@@H](CCCCN)C(=O)N[C@@H](CC(N)=O)C(=O)N[C@@H](CS)C(N)=O)[C@@H](C)O` [GMA1C_V1] (H-SGRCRILFRCFCTKNC-NH2; N-terminus assumed), the gray mold symptoms entry in the experiment with B. cinerea [1] is on record as “failed to reduce disease symptoms”.

`CC[C@H](C)[C@@H]1NC(=O)[C@H](CCCNC(=N)N)NC(=O)[C@@H](NC(=O)[C@H](CCCNC(=N)N)NC(=O)CNC(=O)[C@@H](N)CO)CSSC[C@@H](C(N)=O)NC(=O)[C@H](CC(N)=O)NC(=O)[C@H](CCCCN)NC(=O)[C@H]([C@@H](C)O)NC(=O)[C@H](Cc2c[nH]c3ccccc23)NC(=O)[C@H](Cc2ccccc2)NC(=O)[C@H](Cc2c[nH]c3ccccc23)NC(=O)[C@H](CCCNC(=N)N)NC(=O)[C@H](Cc2ccccc2)NC(=O)[C@H](CC(C)C)NC1=O` [GMA1C_V2] (H-SGRCRILFRWFWTKNC-NH2; disulfide 4-16): in the experiment with B. cinerea [1] (peptide at 1.5 μM), the “reducing the symptoms of gray mold, comparison of peptides” value (from here on “reducing the symptoms of gray mold”) is on record as “more effective than GMA1C_V1”. Besides, the gray mold symptoms entry with B. cinerea [1] (peptide at 3 μM and 6 μM) is “completely abrogated gray mold symptoms”. In addition, in the experiment with Botrytis cinerea, the “MIC (SFM + 2 mM CaCl2)” value came out at 3 µM, the “MIC (SFM + 100 mM KCl)” value is more than 12 µM, the “MIC (SFM + 100 mM NaCl)” value was 3 µM and the “MIC SFM” value was in the range of 1.5 to 3 µM.

For `CC[C@H](C)[C@@H]1NC(=O)[C@H](CCCNC(=N)N)NC(=O)[C@@H](NC(=O)[C@H](CCCNC(=N)N)NC(=O)CNC(=O)[C@@H](N)CO)CSSC[C@@H](C(N)=O)NC(=O)[C@H](CC(N)=O)NC(=O)[C@H](CCCCN)NC(=O)[C@H]([C@@H](C)O)NC(=O)[C@H](Cc2ccccc2)NC(=O)[C@H](Cc2ccc(O)cc2)NC(=O)[C@H](Cc2c[nH]c3ccccc23)NC(=O)[C@H](CCCNC(=N)N)NC(=O)[C@H](Cc2ccccc2)NC(=O)[C@H](CC(C)C)NC1=O` [GMA1C_V3] (H-SGRCRILFRWYFTKNC-NH2; disulfide 4-16), in the experiment on Botrytis cinerea, the “MIC (SFM + 2 mM CaCl2)” value turned out to be 6 µM, the “MIC (SFM + 100 mM KCl)” value is more than 12 µM, the “MIC (SFM + 100 mM NaCl)” value was determined as 3 µM and the “MIC SFM” value is 1.5 µM (≈ 3.07 µg/mL).

In the case of `NCC[C@H](NC(=O)CNC(=O)[C@@H](N)Cc1ccccc1)C(=O)N[C@@H](CS)C(=O)N[C@@H](CCN)C(=O)NCC(=O)N[C@@H](Cc1ccccc1)C(=O)N[C@@H](CCN)C(=O)N[C@@H](CCN)C(=O)N[C@@H](CCN)C(=O)N[C@@H](CS)C(=O)N[C@@H](Cc1ccccc1)C(=O)N[C@@H](CS)C(=O)N[C@@H](Cc1c[nH]c2ccccc12)C(=O)N[C@@H](CCN)C(=O)N[C@@H](Cc1c[nH]c2ccccc12)C(=O)N[C@@H](CS)C(=O)O` [GMA4C_V5, FG(Dab)C(Dab)GF(Dab)(Dab)(Dab)CFCW(Dab)WC] (H-FG[Dab]C[Dab]GF[Dab][Dab][Dab]CFCW[Dab]WC-OH; N-terminus assumed), the “SFM + 2 mM CaCl2 MIC” value in the experiment on B. cinerea [2] is >6 (very μM.

`CC[C@H](C)[C@@H]1NC(=O)[C@H](CCCNC(=N)N)NC(=O)[C@H]([C@@H](C)O)NC(=O)[C@H](Cc2ccccc2)NC(=O)[C@H](Cc2c[nH]c3ccccc23)NC(=O)[C@H](Cc2ccccc2)NC(=O)[C@H](CCCNC(=N)N)NC(=O)[C@H](CCCNC(=N)N)NC(=O)[C@H](CC(C)C)NC(=O)[C@H](Cc2ccccc2)NC(=O)CNC(=O)[C@H](CCCCN)NC(=O)[C@@H](NC(=O)[C@H](CCCNC(=N)N)NC(=O)CNC(=O)CN)CSSC[C@@H](C(N)=O)NC1=O` [GMA4C_V9] (H-GGRCKGFLRRFWFTRIC-NH2; disulfide 4-17): the “effectiveness in reducing gray mold disease symptoms” value with B. cinerea [1] was “effective in reducing gray mold disease symptoms”. For the same compound, in the experiment on Botrytis cinerea, the “MIC (SFM + 2 mM CaCl2)” value turned out to be 12 µM, the “MIC (SFM + 100 mM KCl)” value lay within 6 to 12 µM, the “MIC (SFM + 100 mM NaCl)” value was 3 µM and the “MIC SFM” value is 3 µM (≈ 6.3 µg/mL).

Consider `CC[C@H](C)[C@@H]1NC(=O)[C@H](CCCNC(=N)N)NC(=O)[C@H]([C@@H](C)O)NC(=O)[C@H](Cc2c[nH]c3ccccc23)NC(=O)[C@H](Cc2ccc(O)cc2)NC(=O)[C@H](Cc2c[nH]c3ccccc23)NC(=O)[C@H](CCCNC(=N)N)NC(=O)[C@H](CCCNC(=N)N)NC(=O)[C@H](CCCNC(=N)N)NC(=O)[C@H](Cc2ccccc2)NC(=O)CNC(=O)[C@H](CCCCN)NC(=O)[C@@H](NC(=O)[C@H](CCCNC(=N)N)NC(=O)CNC(=O)CN)CSSC[C@@H](C(N)=O)NC1=O` [GMA4C_V10] (H-GGRCKGFRRRWYWTRIC-NH2; disulfide 4-17; N-terminus assumed), for which, in the experiment on B. cinerea [1] (peptide at 1.5 μM and 3 μM), the “reducing the symptoms of gray mold” value is given as “more effective in reducing the symptoms of gray mold than GMA4C_V9”. Also, in the experiment on B. cinerea [1] (peptide at 6 μM), the gray mold symptoms entry is recorded as “completely abrogates gray mold symptoms”. Besides, the “effectiveness in reducing gray mold disease symptoms” value with B. cinerea [1] is “effective in reducing gray mold disease symptoms”. For the same compound, in the experiment with Botrytis cinerea, the “MIC (SFM + 2 mM CaCl2)” value came to 3 µM, the “MIC (SFM + 100 mM KCl)” value was in the range of 3 to 6 µM, the “MIC (SFM + 100 mM NaCl)” value is 3 µM and the “MIC SFM” value stood at 3 µM (≈ 6.6 µg/mL).

For the compound `C[C@H](NC(=O)CN)C(=O)N[C@H]1CSSC[C@@H](C(N)=O)NC(=O)[C@H](CCCCN)NC(=O)[C@H](CCCCN)NC(=O)[C@H](Cc2ccc(O)cc2)NC(=O)[C@H](Cc2c[nH]c3ccccc23)NC(=O)[C@H](Cc2ccccc2)NC(=O)[C@H](Cc2c[nH]c3ccccc23)NC(=O)[C@H](C)NC(=O)[C@H](Cc2ccccc2)NC(=O)CNC(=O)[C@H](Cc2ccccc2)NC(=O)CNC(=O)[C@H](CCC(N)=O)NC(=O)[C@H](CCCNC(=N)N)NC(=O)[C@H](Cc2c[nH]cn2)NC1=O` [GMA5CA_V3] (H-GACHRQGFGFAWFWYKKC-NH2; disulfide 3-18), in the experiment with Botrytis cinerea, the “MIC (SFM + 2 mM CaCl2)” value was more than 12 µM, the “MIC (SFM + 100 mM KCl)” value was more than 12 µM, the “MIC (SFM + 100 mM NaCl)” value is more than 12 µM and the “MIC SFM” value is 3 µM (≈ 6.57 µg/mL).

Take `C[C@H](NC(=O)CN)C(=O)N[C@H]1CSSC[C@@H](C(N)=O)NC(=O)[C@H](CCCCN)NC(=O)[C@H](CCCCN)NC(=O)[C@H](Cc2ccc(O)cc2)NC(=O)[C@H](Cc2ccccc2)NC(=O)[C@H](Cc2ccccc2)NC(=O)[C@H](Cc2ccccc2)NC(=O)[C@H](C)NC(=O)[C@H](Cc2ccccc2)NC(=O)CNC(=O)[C@H](Cc2ccccc2)NC(=O)CNC(=O)[C@H](CCC(N)=O)NC(=O)[C@H](CCCNC(=N)N)NC(=O)[C@H](Cc2c[nH]cn2)NC1=O` [GMA5CA_V4] (H-GACHRQGFGFAFFFYKKC-NH2; disulfide 3-18): in the experiment on Botrytis cinerea, the “MIC (SFM + 2 mM CaCl2)” value was more than 12 µM, the “MIC (SFM + 100 mM KCl)” value was more than 12 µM, the “MIC (SFM + 100 mM NaCl)” value was more than 12 µM and the “MIC SFM” value was found to be 3 µM (≈ 6.33 µg/mL).

Regarding `CC(C)C[C@@H]1NC(=O)[C@@H](NC(=O)[C@H](C)NC(=O)CN)CSSC[C@@H](C(=O)N[C@@H](Cc2ccc(O)cc2)C(N)=O)NC(=O)[C@H](Cc2c[nH]cn2)NC(=O)[C@H](CCCNC(=N)N)NC(=O)[C@H](Cc2ccc(O)cc2)NC(=O)[C@H](Cc2ccc(O)cc2)NC(=O)[C@H](Cc2c[nH]c3ccccc23)NC(=O)[C@H](Cc2ccccc2)NC(=O)[C@H](Cc2c[nH]c3ccccc23)NC(=O)CNC(=O)[C@H](Cc2ccc(O)cc2)NC(=O)[C@H](Cc2c[nH]cn2)NC(=O)[C@H](CCCCN)NC(=O)[C@H](CO)NC(=O)[C@H](Cc2c[nH]cn2)NC(=O)[C@H](CCCNC(=N)N)NC(=O)[C@H](CC(N)=O)NC(=O)[C@H](CCCCN)NC1=O` [GMAOe1C_V3] (H-GACLKNRHSKHYGWFWYYRHCY-NH2; disulfide 3-21), the “reducing the symptoms of gray mold” value with B. cinerea [1] (peptide at 1.5 μM) was “more effective than GMAOe1C_V4 or GMAOe1C_WT”. Further, the gray mold symptoms entry in the experiment with B. cinerea [1] (peptide at 3 μM and 6 μM) was “completely abrogated gray mold symptoms”. Besides, in the experiment with Botrytis cinerea, the “MIC (SFM + 2 mM CaCl2)” value was in the range of 3 to 6 µM, the “MIC (SFM + 100 mM KCl)” value lay within 6 to 12 µM, the “MIC (SFM + 100 mM NaCl)” value is 2 to 3 µM and the “MIC SFM” value was determined as 1.5 µM (≈ 4.31 µg/mL).

In the case of `CC(C)C[C@@H]1NC(=O)[C@@H](NC(=O)[C@H](C)NC(=O)CN)CSSC[C@@H](C(=O)N[C@@H](Cc2ccc(O)cc2)C(N)=O)NC(=O)[C@H](Cc2c[nH]cn2)NC(=O)[C@H](CCCNC(=N)N)NC(=O)[C@H](Cc2ccc(O)cc2)NC(=O)[C@H](Cc2ccc(O)cc2)NC(=O)[C@H](Cc2c[nH]c3ccccc23)NC(=O)[C@H](Cc2ccccc2)NC(=O)[C@H](Cc2ccccc2)NC(=O)CNC(=O)[C@H](Cc2ccc(O)cc2)NC(=O)[C@H](Cc2c[nH]cn2)NC(=O)[C@H](CCCCN)NC(=O)[C@H](CO)NC(=O)[C@H](Cc2c[nH]cn2)NC(=O)[C@H](CCCNC(=N)N)NC(=O)[C@H](CC(N)=O)NC(=O)[C@H](CCCCN)NC1=O` [GMAOe1C_V4] (H-GACLKNRHSKHYGFFWYYRHCY-NH2; disulfide 3-21), the gray mold symptoms entry in the experiment on B. cinerea [1] (peptide at 3 μM and 6 μM) is recorded as “completely abrogated gray mold symptoms”. In the experiment on Botrytis cinerea, the “MIC (SFM + 2 mM CaCl2)” value is 6 to 12 µM, the “MIC (SFM + 100 mM KCl)” value fell in the range of 6 to 12 µM, the “MIC (SFM + 100 mM NaCl)” value was 6 µM and the “MIC SFM” value stood at 1.5 µM (≈ 4.25 µg/mL).

As for `CC(C)C[C@H](NC(=O)[C@H](CS)NC(=O)[C@H](C)NC(=O)CN)C(=O)N[C@@H](CCCCN)C(=O)N[C@@H](CC(N)=O)C(=O)N[C@@H](CCCNC(=N)N)C(=O)N[C@@H](Cc1c[nH]cn1)C(=O)N[C@@H](CO)C(=O)N[C@@H](CCCCN)C(=O)N[C@@H](Cc1c[nH]cn1)C(=O)N[C@@H](Cc1ccc(O)cc1)C(=O)NCC(=O)N[C@@H](CS)C(=O)N[C@@H](Cc1ccc(O)cc1)C(=O)N[C@@H](CS)C(=O)N[C@@H](Cc1ccc(O)cc1)C(=O)N[C@@H](Cc1ccc(O)cc1)C(=O)N[C@@H](CCCNC(=N)N)C(=O)N[C@@H](Cc1c[nH]cn1)C(=O)N[C@@H](CS)C(=O)N[C@@H](Cc1ccc(O)cc1)C(N)=O` [GMAOe1C_WT, reference compound] (H-GACLKNRHSKHYGCYCYYRHCY-NH2; N-terminus assumed), the “effectiveness in reducing gray mold disease symptoms” value in the experiment with B. cinerea [1] is “only effective at 6 μM”.

Turning to “GACLKNRHSKHYGWFWYYRHCY-NH2 (disulfide 3-21 (inferred)) [GMAOe1C_V2]”, in the experiment with B. cinerea [1] (peptide at 3 μM and 6 μM), the gray mold symptoms result is on record as “completely abrogated gray mold symptoms”.
